Test results: ChEMBL document CHEMBL4765380, “Synthesis, structure and anticancer activity of new geldanamycin amine analogs containing C(17)- or C(20)- flexible and rigid arms as well as closed or open ansa-bridges” (Eur J Med Chem, 2020)

Tests used:
[1] = system: SK-BR-3; test: Antiproliferative activity against human SK-BR-3 cells assessed as reduction in cell growth incubated for 72 hrs by SRB assay; assay type: functional, cell-based; conditions: SK-BR-3, 72 h
[2] = system: SK-OV-3; test: Antiproliferative activity against human SK-OV-3 cells assessed as reduction in cell growth incubated for 72 hrs by SRB assay; assay type: functional, cell-based; conditions: SK-OV-3, 72 h
[3] = system: PC-3; test: Antiproliferative activity against human PC-3 cells assessed as reduction in cell growth incubated for 72 hrs by SRB assay; assay type: functional, cell-based; conditions: PC-3, 72 h
[4] = system: U-87 MG; test: Antiproliferative activity against human U-87 MG cells assessed as reduction in cell growth incubated for 72 hrs by SRB assay; assay type: functional, cell-based, U-87MG ATCC
[5] = system: A549; test: Antiproliferative activity against human A549 cells assessed as reduction in cell growth incubated for 72 hrs by SRB assay; assay type: functional, cell-based; conditions: A549, 72 h
[6] = Cytotoxicity against human HDF cells assessed as reduction in cell growth incubated for 72 hrs by SRB assay; assay type: cell-based; conditions: HDFa
[7] = Selectivity index, ratio of IC50 for cytotoxicity against human HDF cells to IC50 for cytotoxicity against human SK-BR-3 cells; assay type: toxicity, cell-based; conditions: HDF cells versus SK-BR-3 cells, read-out: Ratio IC50
[8] = Selectivity index, ratio of IC50 for cytotoxicity against human HDF cells to IC50 for cytotoxicity against human SK-OV-3 cells
[9] = Selectivity index, ratio of IC50 for cytotoxicity against human HDF cells to IC50 for cytotoxicity against human PC-3 cells; assay type: toxicity, cell-based; conditions: HDF cells versus PC-3 cells, read-out: Ratio IC50
[10] = Selectivity index, ratio of IC50 for cytotoxicity against human HDF cells to IC50 for cytotoxicity against human U-87 MG cells; assay type: toxicity, cell-based; conditions: HDF cells versus U-87 MG cells, read-out: Ratio IC50
[11] = Selectivity index, ratio of IC50 for cytotoxicity against human HDF cells to IC50 for cytotoxicity against human A549 cells; assay type: toxicity, cell-based; conditions: HDF cells versus A549 cells, read-out: Ratio IC50

Structure (SMILES) | IC50 [1] | IC50 [2] | IC50 [3] | IC50 [4] | IC50 [5] | IC50 [6] | selectivity ratio [7] | Ratio IC50 [8] | selectivity ratio [9] | selectivity ratio [10] | selectivity ratio [11]
CO[C@H]1/C=C\C=C(/C)C(=O)NC2=CC(=O)C(NC3CCN(Cc4ccccc4)CC3)=C(C[C@@H](C)C[C@H](OC)[C@H](O)[C@@H](C)/C=C(\C)[C@@H]1OC(N)=O)C2=O | 1770 nM | 1850 nM | 1010 nM | 1100 nM | 1680 nM | 4880 nM | 2.76 | 2.64 | 4.83 | 4.14 | 2.9
CO[C@H]1/C=C\C=C(/C)C(=O)NC2=CC(=O)C(NC3CCN(C(C)=O)CC3)=C(C[C@@H](C)C[C@H](OC)[C@H](O)[C@@H](C)/C=C(\C)[C@@H]1OC(N)=O)C2=O | 1030 nM | 1730 nM | 1660 nM | 1120 nM | 970 nM | 4190 nM | 4.07 | 2.42 | 2.52 | – | 4.32
Nc1ccn([C@@H]2O[C@H](CO)[C@@H](O)[C@@H]2O)c(=O)n1 [CYTARABINE] | 870 nM | 990 nM | 810 nM | 850 nM | 830 nM | 5940 nM | 6.83 | 6 | 7.33 | 6.99 | 7.16
CO[C@H]1/C=C\C=C(/C)C(=O)NC2=CC(=O)C(NCc3ccc(CS(N)(=O)=O)cc3)=C(C[C@@H](C)C[C@H](OC)[C@H](O)[C@@H](C)/C=C(\C)[C@@H]1OC(N)=O)C2=O | 2060 nM | 2000 nM | 1780 nM | 2740 nM | 2020 nM | 4960 nM | 2.41 | 2.48 | 2.9 | 1.81 | –
CO[C@H]1/C=C\C=C(/C)C(=O)NC2=CC(=O)C(NCC3COCCOCCOCCOCCO3)=C(C[C@@H](C)C[C@H](OC)[C@H](O)[C@@H](C)/C=C(\C)[C@@H]1OC(N)=O)C2=O (stereo partly drawn) | – | 2940 nM | 2330 nM | 2990 nM | 2080 nM | 5710 nM | 2.48 | 1.94 | 2.26 | 1.91 | 2.75
CO[C@H]1/C=C\C=C(/C)C(=O)NC2=CC(=O)C(NCc3ccccc3F)=C(C[C@@H](C)C[C@H](OC)[C@H](O)[C@@H](C)/C=C(\C)[C@@H]1OC(N)=O)C2=O | 1840 nM | 1350 nM | 1520 nM | 1040 nM | 1130 nM | 2690 nM | 1.46 | 1.99 | 1.77 | 2.59 | 2.38
CO[C@H]1/C=C\C=C(/C)C(=O)NC2=CC(=O)C(NC3CCN(S(C)(=O)=O)CC3)=C(C[C@@H](C)C[C@H](OC)[C@H](O)[C@@H](C)/C=C(\C)[C@@H]1OC(N)=O)C2=O | 2190 nM | 2490 nM | 2010 nM | 2330 nM | 2930 nM | 6420 nM | 2.93 | 2.58 | 3.19 | 2.76 | 2.19
CO[C@H]1/C=C\C=C(/C)C(=O)NC2=CC(=O)C(NCc3cccc(CS(=O)(=O)N(C(C)C)C(C)C)c3)=C(C[C@@H](C)C[C@H](OC)[C@H](O)[C@@H](C)/C=C(\C)[C@@H]1OC(N)=O)C2=O | 2480 nM | 2050 nM | 2750 nM | 2390 nM | 2970 nM | 5370 nM | 2.17 | 2.62 | 1.95 | 2.25 | 1.81
CO[C@H]1/C=C\C=C(/C)C(=O)NC2=CC(=O)C(NNC3=NCCN3)=C(C[C@@H](C)C[C@H](OC)[C@H](O)[C@@H](C)/C=C(\C)[C@@H]1OC(N)=O)C2=O | 2090 nM | 2470 nM | 3110 nM | 2090 nM | 2710 nM | 3920 nM | 1.88 | 1.59 | 1.26 | 1.88 | 1.45
COc1c(O)cc2cc1C[C@@H](C)C[C@H](OC)[C@H](O)[C@@H](C)/C=C(\C)[C@H](OC(N)=O)[C@@H](OC)CC/C=C(\C)C(=O)N2 [REBLASTATIN] | 600 nM | 125 nM | 18 nM | – | – | – | 53 | 54 | 54 | – | –

More lines, main results first:

IC50 [1] | IC50 [2] | IC50 [3] | IC50 [4] | IC50 [5] | Structure (SMILES) | IC50 [6] | selectivity ratio [7] | Ratio IC50 [8] | selectivity ratio [9] | selectivity ratio [10] | selectivity ratio [11]
4440 nM | 4150 nM | 3610 nM | 4010 nM | 4520 nM | C#CCNC1=C2C[C@@H](C)C[C@H](OC)[C@H](O)[C@@H](C)/C=C(\C)[C@H](OC(N)=O)[C@@H](OC)/C=C\C=C(/C)C(=O)NC(=CC1=O)C2=O | 7880 nM | 1.77 | 1.9 | 2.18 | 1.97 | 1.74
12000 nM | 12400 nM | 13000 nM | 12600 nM | 11400 nM | CO[C@@H](C=CC=C(C)C(N)=O)[C@@H](OC(N)=O)/C(C)=C/[C@H](C)[C@@H](O)[C@H](C[C@H](C)CC1=C(NCCOCCO)C(=O)C=C(NCCOCCO)C1=O)OC | 31300 nM | 2.62 | 2.53 | 2.41 | 2.49 | 2.73
1130 nM | 1110 nM | 1370 nM | 1250 nM | 1050 nM | CO[C@H]1/C=C\C=C(/C)C(=O)NC2=CC(=O)C(NCCO)=C(C[C@@H](C)C[C@H](OC)[C@H](O)[C@@H](C)/C=C(\C)[C@@H]1OC(N)=O)C2=O | 3970 nM | 3.51 | 3.58 | 2.9 | 3.18 | 3.78
2070 nM | 2190 nM | 2240 nM | 2080 nM | 2770 nM | CO[C@H]1/C=C\C=C(/C)C(=O)NC2=CC(=O)C(NCCCCCCO)=C(C[C@@H](C)C[C@H](OC)[C@H](O)[C@@H](C)/C=C(\C)[C@@H]1OC(N)=O)C2=O | 5990 nM | 2.89 | 2.74 | 2.67 | 2.88 | 2.16
4210 nM | 4270 nM | 4530 nM | 4070 nM | 4110 nM | CO[C@@H](/C=C/C=C(/C)C(N)=O)[C@@H](OC(N)=O)/C(C)=C/[C@H](C)[C@@H](O)[C@H](C[C@H](C)CC1=C(NCCCCO)C(=O)C=C(NCCCCO)C1=O)OC | 6360 nM | 1.51 | 1.49 | 1.4 | 1.56 | 1.55
8260 nM | 9410 nM | 9070 nM | 8490 nM | 8110 nM | CO[C@@H](/C=C/C=C(/C)C(N)=O)[C@@H](OC(N)=O)/C(C)=C/[C@H](C)[C@@H](O)[C@H](C[C@H](C)CC1=C(NCCCN2CCCC2)C(=O)C=C(NCCCN2CCCC2)C1=O)OC | 20600 nM | 2.49 | 2.19 | 2.27 | 2.43 | 2.54
